In US8501166B2, “Pyrimidinyl indole compounds” (Hutchison Medipharma Limited, priority 2010, dated 2013):
Counter-ions that a name gives are not always drawn. Like-named read-outs stand apart in the source and are kept apart here.

Assays:
[1] = tested on: collagen induced arthritis; assay: Collagen induced arthritis (CIA) model in mice; format: in vivo, DBA/1 mice
Procedure: Previous studies have shown that small molecular inhibitors of IKKβ are efficacious in a mouse CIA model (Podolin, P L et al, J. Pharm. Exp. Ther., 2005, 312: 373-381). In addition, mice with T cells expressing a dominant—negative form of IkBa are protected from developing CIA (Seetharaman R. et al. J. Immunol. 1999: 163, 1577-1583). […] Therefore a compound of the present invention is tested in the collagen induced arthritis (CIA) model in mice essentially as described in a method reported in the literature (Rosloniec E F, Cremer M, Kang A, Myers L K. Current Protocols in Immunology. 1996, 15.5.1-15.5.24).
Briefly, DBA/1 mice are immunized intradermally with chicken collagen II (200 μg/mouse) emulsified with Freund's complete adjuvant (CFA, Sigma, US) on day 0 and day 21 to elicit arthritis. The severity of arthritis is assessed using a visual scoring system, in which each paw is graded from 0 to 4 (0=normal, 4=severe swelling of the entire paw). The hind joint thicknesses are measured with a micrometer. The testing compound is orally administered for either prophylactic or therapeutic purposes. For the prophylactic study, the testing compound is orally administered twice daily from day 1 to day 42. For the therapeutic study, the drug treatment is started after the onset of arthritis, which usually occurs within one week of 2nd immunization. Mice are treated with the drug for 21 days. […]

[2] = tested on: Skov3-luc cells; assay: Cell viability test, combination study, Skov3-luc; format: cell-based; details: Homo sapiens, 72 h, read-out: Ave. Inhibition rate
Procedure: To evaluate biological activity of a compound in vitro, the cell viability test is applied, in which, IKKβ receptor plays an important role in cell survival and proliferation. Once the IKKβ pathway is blocked by inhibitors, a cell can go through apoptosis or death. The cell viability test provides information on cell survival after treatment with IKK inhibitors.
BxPC-3 cells (ATCC #CRL-1687; human pancreatic cancer cell line) are grown in Roswell Park Memorial Institute (RPMI) 1640 media (Gibco #A10491-01) supplemented with 10% fetal bovine serum (FBS) (Gibco #10099-141). Skov3-luc cells (ATCC, human ovarian carcinoma cell line) are grown in McCoy's 5a medium (Gibco#16600) supplemented with 10% FBS (Gibco#10099-141). For compound testing, BxPc-3 and Skov3-Luc cells are seeded at 2000 and 5000 cells/well respectively in 100 μL of corresponding media specified above for each cell line in 96-well plates 20 h prior to treatment. Cells are treated with a test compound at eight different concentrations in the presence of 0.5% DMSO for 72 h. Cell death in each well is determined by the addition of 20 μL of the One Solution Reagent (CELLTITER 96® AQueous One Solution Cell Proliferation Assay, Promega #G3580). After 2-4 h of incubation at 37° C., optical densities at 492 nm are measured with a microplate reader Inhibition of cell viability is determined by comparison to the control cells treated in the absence of a test compound.
For the combination study of the compound with other antitumor agents, BxPc-3 and Skov3-Luc cells are seeded at 2000 and 5000 cells/well respectively in 100 μL corresponding media specified above for each cell line in 96-well plates 20 h prior to the treatment. […] Cell death in each well is determined by the addition of 20 μL of the One Solution Reagent (CELLTITER 96® AQueous One Solution Cell Proliferation Assay, Promega #G3580). After 2-4 h of incubation at 37° C., optical densities at 492 nm are measured with a microplate reader Inhibition of cell viability is determined by comparison to the control cells treated in the absence of a test compound. […]

Structure (SMILES) | joint swelling and arthritis scores ([1]; 10 and 30 mg/kg bid (20 and 60 mg/kg/day)) | ED50 ([1]; 1008 h, mouse CIA, oral bid for 42 days, read-out: ED50, joint swelling and arthritis scores) | inhibition at 12.5 µM ([2]; Example 1 12.5 μM alone) | inhibition at 12.5 µM ([2]; Vincristine 0.25 μM + Example 1 12.5 μM)
Cl.O=C(NC1CC1)c1cccc2[nH]c(-c3nc(N[C@@H]4CCC[C@H]4O)ncc3Cl)cc12 [Example 2, 2-{5-Chloro-2-[(1R,2R)-2-hydroxycyclopentylamino]pyrimidin-4-yl}-N-cyclopropyl-1H-indole-4-carboxamide hydrochloride] | Statistically significant inhibition of joint swelling and reduction of arthritis scores | 4.3 mg/kg | – | –
O=C(NC1CC1)c1cccc2[nH]c(-c3nc(N[C@@H]4CCC[C@@H]4O)ncc3Cl)cc12 [Example 1, 2-{5-Chloro-2-[(1R,2S)-2-hydroxycyclopentylamino]pyrimidin-4-yl}-N-cyclopropyl-1H-indole-4-carboxamide hydrochloride] | – | – | 21.8% | 82.3%
